Laboratory results published in US10175256B2, “Compositions and methods utilizing lysophosphatidylcholine scaffolds” (National University Of Singapore, priority 2013, dated 2019).
Several values for one entry are separate records, joined by “and”; a condition that tells them apart may be missing. Identical values can stand only once. Each block holds one compound with its values, some of them ahead of it.

Tests used:
Mfsd2a = biological target: T1, Mfsd2a (Mus musculus, UniProt Q9DA75); assay: Competition transport assay with LPC-[3H]palmitate as ligand; assay type: cell-based; set-up: expressed in transfected cells; host or cells: HEK293; conditions: 25 μM LPC-[3H]palmitate; for competition of foscholines with LPC-[3H]palmitate: 250 μM competitor, 15 mins; for competition for transport/uptake of LPC-[3H]palmitate: 10-fold molar excess (250 μM) competitor, 30 mins (PAF 15 mins)
T1 sequence (Q9DA75 1-534): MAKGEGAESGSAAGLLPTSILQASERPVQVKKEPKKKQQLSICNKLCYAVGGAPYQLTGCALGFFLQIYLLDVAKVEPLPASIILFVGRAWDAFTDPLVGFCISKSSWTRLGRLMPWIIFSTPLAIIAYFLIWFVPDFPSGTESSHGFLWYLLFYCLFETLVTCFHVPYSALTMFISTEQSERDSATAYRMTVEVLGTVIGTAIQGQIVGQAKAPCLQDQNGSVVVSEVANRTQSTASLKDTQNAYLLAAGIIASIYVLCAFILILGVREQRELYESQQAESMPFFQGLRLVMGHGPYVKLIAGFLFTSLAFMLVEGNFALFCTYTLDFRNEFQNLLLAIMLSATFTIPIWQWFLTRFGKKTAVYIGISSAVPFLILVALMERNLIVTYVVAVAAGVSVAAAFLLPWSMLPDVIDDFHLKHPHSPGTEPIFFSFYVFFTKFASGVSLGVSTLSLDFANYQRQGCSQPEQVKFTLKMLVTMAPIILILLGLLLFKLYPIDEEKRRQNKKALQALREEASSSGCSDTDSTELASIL
Procedure: Briefly, 24 h post transfection of HEK293 cells with pcDNA3.1Mfsd2a (WT), pcDNA3.1Mfsd2aD92A (D92A), pcDNA3.1Mfsd2aD96A, or pcDNA3.1 (mock) plasmids were washed once with serum-free DMEM medium before addition of a mixture of 25 μM radiolabeled LPC-palmitate and 250 μM cold competitors, which were dissolved in 12% BSA. Total BSA concentration was kept constant in samples with or without cold competitors. Assays were performed at 37° C. for 30 mins. Competition assays with other LPC analogs such as foscholine detergents, and PAF were performed under the same conditions except for 15 mins. The reduced reaction time was necessary in order to limit potential negative effects of detergents and bioactive lipids on cell survival. All assays were performed in 12 well-plates with triplicates and at 37° C.
We next sought to determine ligand specificity and the chemical features of the LPC ligands that are required for transport by Mfsd2a.

mouse Mfsd2a [1] = biological target: T2, mouse Mfsd2a (Mus musculus, UniProt Q9DA75); assay: In vitro transport (uptake) of radiolabeled and fluorescent LPCs in HEK293 cells overexpressing Mfsd2a; assay type: cell-based; conditions: HEK293 cells expressing Mfsd2a
T2 construct: expressed in transfected cells; host or cells: HEK293
T2 sequence (Q9DA75 1-534): T1 sequence (Q9DA75 1-534)
Procedure: Uptake assays of radiolabeled LPCs or fluorescent LPCs were tested using HEK293 cells overexpressing Mfsd2a and mutants constructs. Briefly, HEK293 cells at 90-95% confluency were transfected using LIPOFECTAMINE 2000 (Invitrogen) with pcDNA3.1Mfsd2a (WT), pcDNA3.1Mfsd2aD92A (D92A), pcDNA3.1Mfsd2aD96A (D96A), or pcDNA3.1 (mock) plasmids. Uptake assays were performed after 24 hours of transfections. Prior to ligand incubation, HEK293 transfected cells were washed with serum-free DMEM before assays. For concentration and time dependent assays, radiolabeled LPCs were diluted in pre-warmed DMEM media. For sodium dependent assay, radiolabeled LPCs were diluted in transport buffer (5 mM KCl, 10 mM Hepes, pH 7.4) with 150 mM NaCl or 150 mM choline chloride. For sodium concentration dependent assays, any reductions in the concentration of NaCl were replaced by choline chloride in order to maintain a constant cation molarity of 150 mM. All assays were performed in 12 well-plates with triplicates and at 37° C.

mouse Mfsd2a [2] = assay: Cell-based free fatty acid transport/uptake in Mfsd2a expressing HEK293 cells (mass spectrometry, TLC; Table 1)
Method in brief: (§1)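 HEK293 cells expressing mouse Mfsd2a, or mock controls, were incubated overnight with 100 μM BSA-complexed fatty acids. Lipids were extracted in hexane:isopropanol (3:2) and phospholipid species quantified by HPLC-MS/MS against spiked internal standards. For TLC, cells received 100 μM [^14C]-oleate overnight, and phospholipids and neutral lipids were resolved.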

mouse Mfsd2a [3] = biological target: T2, mouse Mfsd2a; assay: as above
Method in brief: as §1

[4] = mock HEK293 cells, 100 uM fatty acid/BSA overnight
[5] = Mfsd2a HEK293 cells, 100 uM fatty acid/BSA overnight

competition of foscholines with LPC-[3H]palmitate (Mfsd2a): did not compete
Compound: CCCCCCCCOP(=O)([O-])OCC[N+](C)(C)C [Fos-8]

competition of foscholines with LPC-[3H]palmitate (Mfsd2a): did not compete
Compound: CCCCCCCCCCOP(=O)([O-])OCC[N+](C)(C)C [Fos-10]

competition of foscholines with LPC-[3H]palmitate (Mfsd2a): did not compete
Compound: CCCCCCCCCCCCOP(=O)([O-])OCC[N+](C)(C)C [Fos-12]

Compound: CCCCCCCCCCCCCCCC(=O)OC[C@@H](O)COP(=O)([O-])OCC[N+](C)(C)C [LPC-[^3H]palmitate, 1-palmitoyl 2-lysophosphocholine]
comparison of Mfsd2a-mediated uptake (capacity to transport) (mouse Mfsd2a [1]): highest capacity to transport LPC-DHA, followed by LPC-oleate, and LPC-palmitate

Compound: CCCCCCCCCCCCC/C=C/[C@@H](O)[C@@H](N)COP(=O)([O-])OCC[N+](C)(C)C [Lysosphingomyelin]
competition for transport/uptake of LPC-[3H]palmitate (Mfsd2a): competed
competition for transport/uptake of LPC-[3H]palmitate (Mfsd2a; listed as lysosphingomyelin): strong competition

competition of foscholines with LPC-[3H]palmitate (Mfsd2a): strong competition
Compound: CCCCCCCCCCCCCCCCOP(=O)([O-])OCC[N+](C)(C)C [Miltefosine]

Compound: CCCCCCCC/C=C\CCCCCCCC(=O)O [Oleic]
% DHA in PS (mouse Mfsd2a [2]; [4]): 0.107% and 0.1103% and 0.1249%
PS(sum) in total phospholipid (mouse Mfsd2a [2]; [4]): 2.685 mol percent and 3.082 mol percent and 2.902 mol percent
PS:36:1 in total phospholipid (mouse Mfsd2a [2]; [4]): 1.21 mol percent and 1.398 mol percent and 1.339 mol percent
PS:36:2 in total phospholipid (mouse Mfsd2a [2]; [4]): 0.4461 mol percent and 0.5356 mol percent and 0.4546 mol percent
PS:36:3 in total phospholipid (mouse Mfsd2a [2]; [4]): 0.0148 mol percent and 0.01325 mol percent and 0.01917 mol percent
PS:38:2 in total phospholipid (mouse Mfsd2a [2]; [4]): 0.2083 mol percent and 0.235 mol percent and 0.2311 mol percent
PS:38:3 in total phospholipid (mouse Mfsd2a [2]; [4]): 0.1326 mol percent and 0.1657 mol percent and 0.1369 mol percent
PS:38:4 in total phospholipid (mouse Mfsd2a [2]; [4]): 0.07625 mol percent and 0.06869 mol percent and 0.07723 mol percent
PS:38:5 in total phospholipid (mouse Mfsd2a [2]; [4]): 0.01081 mol percent and 0.01386 mol percent and 0.0115 mol percent
PS:40:4 in total phospholipid (mouse Mfsd2a [2]; [4]): 0.09048 mol percent and 0.1018 mol percent and 0.09531 mol percent
PS:40:5 in total phospholipid (mouse Mfsd2a [2]; [4]): 0.06829 mol percent and 0.04459 mol percent and 0.0619 mol percent
PS:40:6 in total phospholipid (mouse Mfsd2a [2]; [4]): 0.09845 mol percent and 0.1006 mol percent and 0.1134 mol percent
PS:40:7 in total phospholipid (mouse Mfsd2a [2]; [4]): 0.008536 mol percent and 0.00964 mol percent and 0.0115 mol percent
% DHA in PS (mouse Mfsd2a [3]; [5]): 0.1056% and 0.1088% and 0.1312% and 0.1092%
PS(sum) in total phospholipid (mouse Mfsd2a [3]; [5]): 2.787 mol percent and 2.992 mol percent and 3.252 mol percent and 2.587 mol percent
PS:36:1 in total phospholipid (mouse Mfsd2a [3]; [5]): 1.289 mol percent and 1.358 mol percent and 1.479 mol percent and 1.19 mol percent
PS:36:2 in total phospholipid (mouse Mfsd2a [3]; [5]): 0.4671 mol percent and 0.4839 mol percent and 0.5719 mol percent and 0.4252 mol percent
PS:36:3 in total phospholipid (mouse Mfsd2a [3]; [5]): 0.0188 mol percent and 0.02264 mol percent and 0.01888 mol percent and 0.01251 mol percent
PS:36:4 in total phospholipid (mouse Mfsd2a [3]; [5]): 0.003419 mol percent and 0.003995 mol percent and 0.004969 mol percent and 0.003335 mol percent
PS:38:2 in total phospholipid (mouse Mfsd2a [3]; [5]): 0.2325 mol percent and 0.2459 mol percent and 0.2529 mol percent and 0.1984 mol percent
PS:38:3 in total phospholipid (mouse Mfsd2a [3]; [5]): 0.1257 mol percent and 0.1554 mol percent and 0.1491 mol percent and 0.1276 mol percent
PS:38:4 in total phospholipid (mouse Mfsd2a [3]; [5]): 0.06539 mol percent and 0.08301 mol percent and 0.08249 mol percent and 0.07253 mol percent
PS:38:5 in total phospholipid (mouse Mfsd2a [3]; [5]): 0.008121 mol percent and 0.01199 mol percent and 0.01093 mol percent and 0.01084 mol percent
PS:40:4 in total phospholipid (mouse Mfsd2a [3]; [5]): 0.09916 mol percent and 0.08523 mol percent and 0.1014 mol percent and 0.07753 mol percent
PS:40:5 in total phospholipid (mouse Mfsd2a [3]; [5]): 0.05001 mol percent and 0.05638 mol percent and 0.05863 mol percent and 0.05419 mol percent
PS:40:6 in total phospholipid (mouse Mfsd2a [3]; [5]): 0.09445 mol percent and 0.09677 mol percent and 0.1222 mol percent and 0.0942 mol percent
PS:40:7 in total phospholipid (mouse Mfsd2a [3]; [5]): 0.01111 mol percent and 0.01199 mol percent and 0.008944 mol percent and 0.01501 mol percent

competition for transport/uptake of LPC-[3H]palmitate (Mfsd2a): not a competitor
Compound: C[N+](C)(C)CCOP(=O)([O-])OC[C@H](O)CO [glycerophosphatidylcholine, alpha-glycerylphosphocholine]

Compound: CCCCCCCCCCCCCCCCOC[C@@H](O)COP(=O)([O-])OCC[N+](C)(C)C [lysoplatelet activating factor]
competition for transport/uptake of LPC-[3H]palmitate (Mfsd2a): strong competitors

competition for transport/uptake of LPC-[3H]palmitate (Mfsd2a): not a competitor
competition for transport/uptake of LPC-[3H]palmitate (Mfsd2a; listed as sphingosine 1-phosphate): did not compete
Compound: CCCCCCCCCCCCC/C=C/[C@@H](O)[C@@H](N)COP(=O)(O)O [sphingosine-1-phosphate]

Compound: PE38:5
Amount of each lipid species, mol percent in total phospholipid analysed (mouse Mfsd2a [2]; mock HEK293 cells incubated with 100 uM Arachidonic fatty acid/BSA complex overnight, MS, replicate columns): 1.648 mol percent and 1.509 mol percent and 1.4 mol percent
Amount of each lipid species, mol percent in total phospholipid analysed (mouse Mfsd2a [2]; mock HEK293 cells incubated with 100 uM Eicosapentaenoic fatty acid/BSA complex overnight, MS, replicate columns): 1.214 mol percent and 0.8982 mol percent and 0.9456 mol percent
Amount of each lipid species normalized to internal standard, mol percent in total phospholipid analysed (mouse Mfsd2a [2]; mock HEK293 cells, 100 uM Docosahexaenoic acid/BSA complex overnight, MS, replicate columns): 0.6844 mol percent and 0.8632 mol percent and 0.5129 mol percent
Amount of lipid species, mol percent in total phospholipid analysed (mouse Mfsd2a [2]; mock HEK293 cells, 100 uM Linoleic fatty acid/BSA complex overnight, MS, replicate columns): 0.9188 mol percent and 0.8836 mol percent and 0.7914 mol percent
Amount of lipid species, mol percent in total phospholipid analysed (mouse Mfsd2a [2]; mock HEK293 cells, 100 uM Oleic fatty acid/BSA complex overnight, MS, replicate columns): 0.809 mol percent and 0.6822 mol percent and 0.456 mol percent
Amount of each lipid species, mol percent in total phospholipid analysed (mouse Mfsd2a [3]; Mfsd2a expressing HEK293 cells incubated with 100 uM Arachidonic fatty acid/BSA complex overnight, MS, replicate columns): 1.517 mol percent and 1.746 mol percent and 1.538 mol percent and 1.292 mol percent
Amount of each lipid species, mol percent in total phospholipid analysed (mouse Mfsd2a [3]; Mfsd2a expressing HEK293 cells incubated with 100 uM Eicosapentaenoic fatty acid/BSA complex overnight, MS, replicate columns): 0.8525 mol percent and 0.7862 mol percent and 1.249 mol percent and 0.8033 mol percent
Amount of lipid species, mol percent in total phospholipid analysed (mouse Mfsd2a [3]; Mfsd2a expressing HEK293 cells, 100 uM Alpha-linolenic fatty acid/BSA complex overnight, replicate columns): 2.013 mol percent and 1.902 mol percent and 1.704 mol percent and 1.689 mol percent
Amount of each lipid species normalized to internal standard, mol percent in total phospholipid analysed (mouse Mfsd2a [3]; Mfsd2a expressing HEK293 cells, 100 uM Docosahexaenoic acid/BSA complex overnight, MS, replicate columns): 0.6996 mol percent and 0.7565 mol percent and 0.8996 mol percent and 0.9147 mol percent
Amount of lipid species, mol percent in total phospholipid analysed (mouse Mfsd2a [3]; Mfsd2a expressing HEK293 cells, 100 uM Linoleic fatty acid/BSA complex overnight, MS, replicate columns): 0.714 mol percent and 1.007 mol percent and 0.7471 mol percent and 0.7035 mol percent
Amount of lipid species, mol percent in total phospholipid analysed (mouse Mfsd2a [3]; Mfsd2a expressing HEK293 cells, 100 uM Oleic fatty acid/BSA complex overnight, MS, replicate columns): 0.6441 mol percent and 0.6477 mol percent and 0.57 mol percent and 0.5862 mol percent

competition for transport/uptake of LPC-[3H]palmitate (Mfsd2a): non-competitive
Compound: lysophosphatidic acid [LPA]

competition for transport/uptake of LPC-[3H]palmitate (Mfsd2a): weak competition
Compound: lysophosphatidylethanolamine [LPE]

Compound: lysophosphatidylserine [LPS]
competition for transport/uptake of LPC-[3H]palmitate (Mfsd2a): weak competition

Compound: platelet activating factor
competition for transport/uptake of LPC-[3H]palmitate (Mfsd2a): strong competitors
competition for transport/uptake of LPC-[3H]palmitate (Mfsd2a; listed as PAF): strong competition
